Results: patent US4127687A, “Prevention of fouling of marine structures such as boat hulls” (Rohm and Haas Company, priority 1976, dated 1978)
Values after ≈ are worked out from the molar mass of the structure shown.

How the values were obtained:
[1] = Amount of toxicant remaining in the test container after membrane diffusion raft tests; type: physicochemical; design: key: 0: empty or trace; +: some; + +: ample; conditions: after completion of membrane diffusion raft tests
Source text: (§1) A known quantity of the test compound is placed into a cylindrical plastic container whose open end is then covered with a membrane of known porosity; the complete unit is attached to the appropriate raft panel so that the poison can freely diffuse into the free water layer around it. Regular inspections, recording time and quantity of settlement, allow a life history of each membrane trial to be constructed. Each raft panel contains 35 compounds to be evaluated together with 4 standard poisons and 1 non-toxic membrane for control.
(§2) After the completion of membrane tests the contents of all containers are checked visually for poison loss. An empty container indicates an unacceptably high solubility for long term effectiveness; where the poison loss is low the compound is tested in one of two ways depending on its performance against fouling.
^b Amount of toxicants remaining in the test container after the
completion of the membrane diffusion raft tests: 0 = empty or trace, + =

weed = assay: Membrane Diffusion Raft Trials, weed control; type: in vivo, grass-like algal growth common in sea water; conditions: membrane test, average 15 to 16 weeks of immersion
Source text: (§3) 1). FIELD TESTS: - Membrane Diffusion Raft Trials
(§4) A specially constructed raft provides three types
(§5) a). Waterline Well illuminated, aerated
(§6) b). Flats Poorly illuminated deeper
as §1
(§7) The behavior on the raft can thus be compared with that of the standard poisons and the non-toxic control. At normal loading a membrane over the standard poisons would be free from macro-fouling after six months immersion. Compounds showing selective effects against restricted groups of fouling organisms also show up by membrane testing.
as §2
(§8) In the membrane tests, the results of approximately 140 compounds evaluated appear in Table 1. The symbols "0" means no detactable effect, the symbol "+" indicates the compound is active against the given fouling organism, and the symbol "++" means that the compound appears to be effective over at least about a four month period for essentially preventing fouling activity by the given organism. In the Table, "weed" designates a grass-like algal growth common in sea water.
(§9) Membrane Test results are of an average 15 to 16 weeks of immersion,
(§10) ^a 0 = none, + = some, + + = effective.

barnacle = assay: Membrane Diffusion Raft Trials, barnacle control; type: in vivo, barnacles; conditions: membrane test, average 15 to 16 weeks of immersion
Source text: as §3, §4, §5, §6, §1, §7, §2, §8, §9, §10
^f The 1975 Spring settlement of barnacles was very meager and the […]

[2] = Water solubility by UV spectrophotometric method; type: physicochemical; conditions: water, saturated solution; Table 1; read-out: Solubility by UV method
Protocol: The water solubilities of several isothiazolones were determined by UV spectrophotometric measurements of saturated aqueous solution of each compound in comparison with measurement of solutions of carefully prepared known concentration as outlined in the following example.
DETERMINATION OF SOLUBILITY OF 5-CHLORO-2-(4-FLUOROPHENYL)-4-METHYL-3-ISOTHIAZOLONE OF EXAMPLE 115
A sample of 5-chloro-2-(4-fluorophenyl)-4-methyl-3-isothiazolone (0.0406 g., 1.67 × 10^-4 mole) was dissolved in 50 ml. of methanol. A 5 ml. aliquot of the solution was diluted to 1000 ml. with deionized water, providing a solution of 1.67 × 10^-5 moles/liter concentration. An ultraviolet spectrum of this solution was run using a 10 cm. cell. The absorbance (As) at the wave length of maximum absorption (279 nm.) was 1.208. The molar absorptivity, AM, was calculated from the relationship
where b and c are path length or cell thickness and concentration respectively. Thus, AM was [formula]
Another sample of the compound (0.3-0.5 g.) was stirred vigorously in 40 ml. of deionized water for approximately 72 hrs. to give a saturated solution. The mixture was filtered through very fine filter paper (Whatman No. 50) to remove all suspended solid. Small portions of the filtrate were diluted with water by various factors until an approximately mid-scale absorbance was obtained upon running an ultraviolet spectrum. Such an absorbance was obtained at a dilution of 10. The absorbance was 0.975 in a 10 cm. cell. Using the value for AM obtained earlier, in the equation

Structure (SMILES) | Contents at the end of test (amount of toxicants remaining in the test container) [1] | Weed Control (weed) | Barnacle Control (barnacle) | solubility [2] [µg/mL]
O=c1c(Cl)c(Cl)sn1-c1cccc(Cl)c1 [Example 76] | + + | + | 0 | 
Cc1c(Cl)sn(-c2ccccc2Cl)c1=O [Example 112] |  |  |  | 23 (≈ 88.4 µM)
CCCCCCCCCCn1sc(Br)c(Br)c1=O [Example 96] | + + | 0 | 0 | 
CCCCCCCCCCCCCCn1sc(Cl)cc1=O [Example 24] | + + | 0 | + + | 
O=c1cc(Cl)sn1Cc1ccccc1 [Example 31] |  |  |  | 390 (≈ 1730 µM)
Cc1c(Cl)sn(-c2ccc(Cl)c(C(F)(F)F)c2)c1=O [Example 131] | + + | 0 | 0 | 
O=c1ccsn1-c1ccccc1 [Example 11] | 0 | 0 | 0 | 
O=c1cc(Cl)sn1-c1ccc(Cl)c(Cl)c1 [Example 37] | + + | + | + | 
O=c1ccsn1CCc1ccc(Cl)cc1 [Example 9] | 0 | 0 | 0 | 
CCCCCCCCCCn1sc(Cl)c(Br)c1=O [Example 89] | + + | 0 | 0 | 
CCCCCCCCCCCCn1scc(Br)c1=O [Example 50] | + + | 0 | + | 
Cc1c(Cl)sn(-c2ccc(Cl)cc2Cl)c1=O [Example 135] |  |  |  | 4 (≈ 13.6 µM)
CCCCCCCCCCCCn1sc(Br)c(Br)c1=O [Example 97] | + + | 0 | 0 | 
CC(C)(C)CC(C)(C)n1sc(Cl)cc1=O [Example 21] |  |  |  | 200 (≈ 807 µM)
Cc1c(Cl)sn(-c2ccc(Br)cc2)c1=O [Example 116] |  |  |  | 7 (≈ 23 µM)
O=c1c(Cl)csn1Cc1ccc(Cl)cc1 [Example 46] | + + | + | 0 | 
CCCCCCC(C)n1sc(Cl)cc1=O (centres unmarked) [Example 18] |  |  |  | 175 (≈ 706 µM)
O=c1c(Br)csn1-c1ccc(Cl)cc1 [Example 54] | + + | 0 | 0 | 
CCCCCCCCn1sc(Br)c(C)c1=O [Example 102] | 0 | + | + | 
Cc1c(Cl)sn(-c2ccc(Oc3ccccc3)cc2)c1=O [Example 124] | + + | 0 | 0 | 
Cc1c(Cl)sn(C)c1=O [Example 100] | 0 | 0 | 0 | 

Structure (SMILES) | Contents at the end of test (amount of toxicants remaining in the test container) [1] | Weed Control (weed) | Barnacle Control (barnacle) | solubility [2] [µg/mL]
CCCCCCCCCCCCCCCCCCn1sccc1=O [Example 8] | + + | 0 | 0 | 
CC1CC(n2sc(Cl)cc2=O)CC(C)(C)C1 (centres unmarked) [Example 28] |  |  |  | 185 (≈ 712 µM)
CCCCCCCCCCCCCCn1sc(Cl)c(C)c1=O [Example 106] | + + | 0 | 0 | 
O=c1c(Cl)c(Cl)sn1-c1ccc([N+](=O)[O-])cc1 [Example 82] | + + | 0 | 0 | 
O=c1c(Cl)c(Cl)sn1-c1cc(Cl)cc(Cl)c1 [Example 77] | + + | 0 | 0 | 
O=c1c(Br)csn1CCc1ccccc1 [Example 52] | + | 0 | 0 | 
Cc1ccc(-n2sc(Cl)c(Cl)c2=O)cc1Cl [Example 81] | + + | 0 | 0 | 
CC(c1ccccc1)n1sc(Cl)c(Cl)c1=O (centres unmarked) [Example 70] |  |  |  | 50 (≈ 182 µM)
O=c1c(Br)c(Cl)sn1CCc1ccc(Cl)cc1 [Example 92] | + | 0 | 0 | 
CC(C)CCCC(C)n1sc(Cl)c(Cl)c1=O (centres unmarked) [Example 61] |  |  |  | 55 (≈ 195 µM)
CCCCc1ccc(-n2sc(Cl)c(Cl)c2=O)cc1 [Example 83] | + + | 0 | + | 
Cn1sc(Br)c(Br)c1=O [Example 94] | 0 | + | 0 | 
CCCCCCC(C)n1sc(Cl)c(Cl)c1=O (centres unmarked) [Example 60] |  |  |  | 50 (≈ 177 µM)
CC(C)CCCC(C)n1sc(Cl)cc1=O (centres unmarked) [Example 19] |  |  |  | 190 (≈ 767 µM)
Cc1csn(-c2ccc(Cl)c(Cl)c2)c1=O [Example 140] | + + | 0 | 0 | 
Cc1csn(-c2cccc(Cl)c2)c1=O [Example 138] | + + | + | 0 | 
CCCCCCCCCCCCn1sc(Cl)c(C)c1=O [Example 105] | + + | 0 | + | 
O=c1cc(Cl)sn1-c1ccc(Cl)c(C(F)(F)F)c1 [Example 40] | + + | + | 0 | 
Cc1cc(-n2sc(Cl)c(C)c2=O)ccc1Br [Example 133] | + + | 0 | 0 | 
CCCCCCCCCCCCCCCCn1sc(Cl)cc1=O [Example 25] | + + | 0 | 0 | 
